≈ marks a conversion by molar mass, not a printed value.
What was measured:
[1] = system: M. tuberculosis H37Rv-LP (ATCC 25618); assay: MIC in liquid medium, parental strain; format: cell-based; conditions: Mycobacterium tuberculosis, 120 h, n in brackets
in vitro = conditions: human
human HepG2 cells = conditions: read-out: IC50 HepG2, Glucose; concentration reducing cell number by 50%, 3 days exposure, glucose as carbon source; cited from earlier work
M. tuberculosis = format: cell-based, Mycobacterium tuberculosis; conditions: normalized to DMSO control
[2] = system: M. tuberculosis H37Rv-LP (ATCC 25618); assay: microbe, parasite or virus in culture; format: cell-based; conditions: Mycobacterium tuberculosis, 504 h, 24-well agar plates, 3 weeks, read-out: MIC on solid medium, H37Rv-LP
[3] = system: M. tuberculosis in human THP-1 macrophages; assay: Activity against intracellular M. tuberculosis in THP-1 macrophages; format: cell-based; conditions: Mycobacterium tuberculosis, THP-1, 72 h, unit inferred, μM
[4] = system: M. tuberculosis H37Rv ATCC 27294; assay: microbe, parasite or virus in culture; format: cell-based; conditions: Mycobacterium tuberculosis, 120 h; 5 days; read-out: MIC, H37Rv ATCC 27294 Parental

| SMILES | MIC [1] [µM] | IC50 (in vitro) [µM] | IC50 (human HepG2 cells) [µM] | Effect on intracellular ATP levels (M. tuberculosis) | MIC [2] [µM] | IC50 [3] [µM] | MIC [4] [µM] |
| --- | --- | --- | --- | --- | --- | --- | --- |
| Cc1ccc(CCNc2cc(-c3ccccc3)nc3ncnn23)cc1 [TPN-0006245] | 2 ± 1.1 (≈ 0.659 µg/mL) | 39 | 58 |  |  |  |  |
| NC[C@H]1O[C@H](O[C@H]2[C@H](O)[C@@H](O[C@H]3O[C@H](CO)[C@@H](O)[C@H](N)[C@H]3O)[C@H](N)C[C@@H]2N)[C@H](O)[C@@H](O)[C@@H]1O [kanamycin] |  |  |  | Depletion of ATP was not seen |  |  |  |
| FC(F)(F)c1ccc(CCNc2cc(-c3ccccn3)nc3ncnn23)cc1 [TPN-0006267] | 1.4 ± 1.4 (≈ 0.538 µg/mL) | > 100 | > 100 |  | 1.6 (≈ 0.615 µg/mL) | 0.21 ± 0.11 |  |
| CCc1nc2ccc(Cl)cn2c1C(=O)NCc1ccc(N2CCC(c3ccc(OC(F)(F)F)cc3)CC2)cc1 [Molecule Q203, Q203] |  |  |  | depletion of ATP levels at concentrations lower than the MIC |  |  |  |
| CCc1ccc(CCNc2cc(-c3ccccc3)nc3ncnn23)cc1 [TPN-0006290] |  | 33 | 49 |  |  | 0.18 ± 0.09 |  |
| FC(F)(F)c1ccc(CCNc2cc(-c3ccccc3)nc3ncnn23)cc1 [TPN-0006243] | 3.7 ± 2.9 (≈ 1.42 µg/mL) | > 100 | > 100 |  |  |  | 2.2 ± 0.9 (≈ 0.843 µg/mL) |
| COc1ccc(CCNc2cc(-c3ccccc3)nc3ncnn23)cc1 [TPN-0006218] | 2.6 ± 1.3 (≈ 0.898 µg/mL) | 65 | > 100 |  |  | 0.23 ± 0.08 |  |
| COc1ccc(CCNc2cc(-c3ccccn3)nc3ncnn23)cc1 [TPN-0006239] | 1.1 ± 0.5 (≈ 0.381 µg/mL) | 73 | > 100 |  | 1.6 (≈ 0.554 µg/mL) |  | 9.5 ± 3.5 (≈ 3.29 µg/mL) |
| Clc1ccc(CCNc2cc(-c3ccccn3)nc3ncnn23)cc1 [TPN-0006273] |  | 76 | 100 |  |  | 0.19 ± 0.13 |  |
| CCc1ccc(CCNc2cc(-c3ccccn3)nc3ncnn23)cc1 [TPN-0006288] |  | 23 | 44 |  |  | 0.076 ± 0.032 |  |

Source: paper PMC9017309, “Triazolopyrimidines Target Aerobic Respiration in Mycobacterium tuberculosis” (Antimicrobial Agents and Chemotherapy, 2022)
